How the values were obtained:
Type in all cases: cell-based
NK1 = NK1 (Homo sapiens, UniProt P25103); test: Signal transduction (ST), intracellular Ca++ (FLIPR), NK1 antagonistic activity; conditions: read-out: pIC50 NK1 (converted)
In short: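 Confluent cells loaded with 2 μM Fluo3 (1 h, 37 °C, probenecid), preincubated 20 min at RT with antagonist concentration range, then agonist added. Peak Ca++ transient read by FLIPR in Krebs buffer pH 7.4; IC50 by non-linear regression.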

NK2 = target: T1, NK2 (Homo sapiens, UniProt P21452); test: Signal transduction (ST), intracellular Ca++ (FLIPR), NK2; conditions: read-out: pIC50 NK2 (converted)
T1 sequence (P21452 1-398): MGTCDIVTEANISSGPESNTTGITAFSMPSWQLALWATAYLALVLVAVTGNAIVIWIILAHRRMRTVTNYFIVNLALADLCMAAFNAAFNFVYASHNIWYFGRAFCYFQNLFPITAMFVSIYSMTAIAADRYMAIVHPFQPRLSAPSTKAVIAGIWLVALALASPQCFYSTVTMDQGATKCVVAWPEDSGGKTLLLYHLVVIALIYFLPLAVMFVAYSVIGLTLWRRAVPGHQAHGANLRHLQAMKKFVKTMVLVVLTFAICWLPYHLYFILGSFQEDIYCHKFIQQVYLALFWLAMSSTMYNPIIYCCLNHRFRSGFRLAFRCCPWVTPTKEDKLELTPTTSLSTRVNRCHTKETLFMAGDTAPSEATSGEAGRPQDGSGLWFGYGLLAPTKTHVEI

NK3 = target: T2, NK3 (Homo sapiens, UniProt P29371); test: Signal transduction (ST), intracellular Ca++ (FLIPR), NK3; conditions: read-out: pIC50 NK3 (converted)
T2 sequence (P29371 1-465): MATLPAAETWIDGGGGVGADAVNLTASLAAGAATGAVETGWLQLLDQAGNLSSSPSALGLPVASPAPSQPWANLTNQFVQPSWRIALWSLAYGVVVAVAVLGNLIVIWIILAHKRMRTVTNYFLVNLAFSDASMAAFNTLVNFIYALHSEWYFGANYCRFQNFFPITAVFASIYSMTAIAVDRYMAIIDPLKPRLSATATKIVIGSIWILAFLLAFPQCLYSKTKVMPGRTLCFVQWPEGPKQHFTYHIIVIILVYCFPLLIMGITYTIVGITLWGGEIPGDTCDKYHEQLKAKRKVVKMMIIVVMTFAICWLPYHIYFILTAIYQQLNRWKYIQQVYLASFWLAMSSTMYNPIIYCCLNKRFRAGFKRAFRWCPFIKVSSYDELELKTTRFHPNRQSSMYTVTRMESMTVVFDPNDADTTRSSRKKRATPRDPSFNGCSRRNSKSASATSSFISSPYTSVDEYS

Chain of NK1 (P25103 whole entry): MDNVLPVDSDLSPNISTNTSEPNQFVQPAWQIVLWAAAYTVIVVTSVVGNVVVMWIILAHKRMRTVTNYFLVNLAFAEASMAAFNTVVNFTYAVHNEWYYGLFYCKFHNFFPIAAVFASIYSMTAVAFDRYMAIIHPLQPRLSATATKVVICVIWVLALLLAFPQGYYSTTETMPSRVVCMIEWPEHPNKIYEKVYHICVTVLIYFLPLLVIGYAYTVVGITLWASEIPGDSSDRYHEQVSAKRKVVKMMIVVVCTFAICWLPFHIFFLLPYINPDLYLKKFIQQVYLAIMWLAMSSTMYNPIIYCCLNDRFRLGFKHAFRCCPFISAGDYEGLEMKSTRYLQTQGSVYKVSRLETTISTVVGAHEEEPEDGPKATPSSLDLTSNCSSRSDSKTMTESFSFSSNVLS

Row | SMILES | IC50 (NK1) | IC50 (NK2) | IC50 (NK3)
1 | COc1ccc(OC)c(S(=O)(=O)N2CCC(N3CCN([C@H]4CCN(C(=O)c5cc(C(F)(F)F)cc(C(F)(F)F)c5)[C@H](Cc5ccccc5)C4)CC3)C2)c1 (stereo partly drawn) [Compound 411] | 20 nM | 2510 nM | 1000 nM
2 | COc1ccc(Cl)cc1S(=O)(=O)N1CCC(N2CCN([C@H]3CCN(C(=O)c4cc(C(F)(F)F)cc(C(F)(F)F)c4)[C@H](Cc4ccccc4)C3)CC2)C1 (stereo partly drawn) [Compound 412] | 79.4 nM | 2510 nM | 5010 nM
